This assay has as its target T1, mTOR (Homo sapiens, UniProt P42345).
T1 construct: purchased Invitrogen PR8683A
Kind of assay: mTOR HTR-FRET assay. The class given is biochemical. The following applies: read-out: Act. Level (IC50 in mTor HTR-FRET assay). Summed up: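 Test compounds, taken from 10 mM DMSO stocks and diluted, were mixed with mTOR enzyme (0.200 μg/mL) in Tris buffer pH 7.4 with 100 mM NaCl, 0.1% Tween-20 and 1 mM DTT. ATP/substrate addition initiated the reaction, alongside compound-free controls.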
T1 sequence (P42345 1360-2549 limits assumed): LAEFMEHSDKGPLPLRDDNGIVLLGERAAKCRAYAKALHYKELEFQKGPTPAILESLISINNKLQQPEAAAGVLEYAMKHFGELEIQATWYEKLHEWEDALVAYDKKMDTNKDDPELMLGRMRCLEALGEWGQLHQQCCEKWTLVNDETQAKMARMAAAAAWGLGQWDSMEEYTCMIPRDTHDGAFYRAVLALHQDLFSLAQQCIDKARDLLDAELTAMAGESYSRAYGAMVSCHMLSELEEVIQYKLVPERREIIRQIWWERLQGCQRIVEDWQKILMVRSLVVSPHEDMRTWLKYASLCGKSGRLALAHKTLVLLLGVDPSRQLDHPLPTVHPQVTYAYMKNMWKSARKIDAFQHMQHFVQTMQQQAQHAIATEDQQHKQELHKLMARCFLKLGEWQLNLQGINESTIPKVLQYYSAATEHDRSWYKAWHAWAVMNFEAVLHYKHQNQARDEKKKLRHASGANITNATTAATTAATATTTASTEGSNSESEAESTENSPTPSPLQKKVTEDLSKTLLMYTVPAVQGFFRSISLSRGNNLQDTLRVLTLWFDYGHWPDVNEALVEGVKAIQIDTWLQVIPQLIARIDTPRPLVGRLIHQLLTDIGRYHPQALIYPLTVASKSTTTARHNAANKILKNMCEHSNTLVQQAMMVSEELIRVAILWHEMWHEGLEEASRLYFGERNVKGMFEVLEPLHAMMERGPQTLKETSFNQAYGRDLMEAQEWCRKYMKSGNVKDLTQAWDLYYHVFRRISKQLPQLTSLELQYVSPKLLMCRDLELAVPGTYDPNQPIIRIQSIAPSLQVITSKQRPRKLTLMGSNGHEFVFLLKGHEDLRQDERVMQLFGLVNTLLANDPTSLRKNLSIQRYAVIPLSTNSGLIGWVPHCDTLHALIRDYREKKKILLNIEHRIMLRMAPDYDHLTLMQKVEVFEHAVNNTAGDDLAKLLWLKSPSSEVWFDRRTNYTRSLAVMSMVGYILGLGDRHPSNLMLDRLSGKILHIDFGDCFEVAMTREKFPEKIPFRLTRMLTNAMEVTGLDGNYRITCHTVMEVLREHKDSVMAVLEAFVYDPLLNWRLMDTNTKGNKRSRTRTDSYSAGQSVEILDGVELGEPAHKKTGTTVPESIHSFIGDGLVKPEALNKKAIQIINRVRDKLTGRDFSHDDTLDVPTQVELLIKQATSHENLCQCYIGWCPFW
In the case of `CO[C@H]1CC[C@@H](N2C(=O)CNc3ncc(-c4ccc(-c5nnc[nH]5)nc4C)nc32)C1` [Example 228, 1-((1R,3S)-3-methoxycyclopentyl)-7-(2-methyl-6-(4H-1,2,4-triazol-3-yl)pyridin-3-yl)-3,4-dihydropyrazino[2,3-b]pyrazin-2(1H)-one], the half-maximal inhibitory concentration (IC50) was 0.005 to 250 nM.
In the case of `Cc1cc(-c2nc[nH]n2)c(F)cc1-c1cnc2c(n1)N([C@H]1CC[C@@H](O)CC1)C(=O)CN2` [Example 161, 7-(5-fluoro-2-methyl-4-(1H-1,2,4-triazol-3-yl)phenyl)-1-(cis-4-hydroxycyclohexyl)-3,4-dihydropyrazino[2,3-b]pyrazin-2(1H)-one], the IC50 lay within 0.005 to 250 nM.
With `COCCN1C(=O)CNc2ncc(-c3cc(F)c(-c4nc[nH]n4)cc3C)nc21` [Example 175, 7-(5-fluoro-2-methyl-4-(1H-1,2,4-triazol-3-yl)phenyl)-1-(2-methoxyethyl)-3,4-dihydropyrazino[2,3-b]pyrazin-2(1H)-one] the figure was 0.005 to 250 nM.
Take `NC(=O)c1ccc(-c2cnc3c(n2)N(CCC2CCOCC2)C(=O)CN3)cc1` [Example 222, 4-(7-oxo-8-(2-(tetrahydro-2H-pyran-4-yl)ethyl)-5,6,7,8-tetrahydropyrazino[2,3-b]pyrazin-2-yl)benzamide]: the IC50 is 0.005 to 250 nM.
As to `COCCN1CC(=O)Nc2ncc(-c3cnc(C(N)=O)cc3C)nc21` [Example 32, 5-(8-(2-methoxyethyl)-6-oxo-5,6,7,8-tetrahydropyrazino[2,3-b]pyrazin-2-yl)-4-methylpicolinamide], the IC50 lay within 0.005 to 250 nM.
`CCN1c2nc(-c3ccc(-c4nnc[nH]4)cc3C)cnc2NC(=O)C1(C)C` [Example 72, 4-ethyl-3,3-dimethyl-6-(2-methyl-4-(4H-1,2,4-triazol-3-yl)phenyl)-3,4-dihydropyrazino[2,3-b]pyrazin-2(1H)-one]: the IC50 lay in the range of 0.005 to 250 nM.
Consider `Cc1cc(-c2nnc[nH]2)ccc1-c1cnc2c(n1)NC(=O)CN2` [Example 239, 7-(2-methyl-4-(4H-1,2,4-triazol-3-yl)phenyl)-3,4-dihydropyrazino[2,3-b]pyrazin-2(1H)-one], for which the IC50 lay in the range of 0.005 to 250 nM.
Regarding `CC(C)(C)CN1CC(=O)Nc2ncc(-c3ccc(C(C)(C)O)nc3)nc21` [Example 105, 6-(6-(2-hydroxypropan-2-yl)pyridin-3-yl)-4-neopentyl-3,4-dihydropyrazino[2,3-b]pyrazin-2(1H)-one], the IC50 is 250 to 500 nM.
The result for `N#Cc1cccc(-c2cnc3c(n2)N(CCC2CCOCC2)CC(=O)N3)c1` [Example 34, 3-(6-oxo-8-(2-(tetrahydro-2H-pyran-4-yl)ethyl)-5,6,7,8-tetrahydropyrazino[2,3-b]pyrazin-2-yl)benzonitrile] reads 500 to 1000 nM; that for `O=C1CNc2ncc(-c3cn[nH]c3)nc2N1CCC1CCOCC1` [Example 201, 7-(1H-pyrazol-4-yl)-1-(2-(tetrahydro-2H-pyran-4-yl)ethyl)-3,4-dihydropyrazino[2,3-b]pyrazin-2(1H)-one], 1000 to 10000 nM; that for `Cc1c(-c2cnc3c(n2)N(C2CCOCC2)CC(=O)N3)ccc(-c2nc[nH]n2)c1F` [Example 27, 6-(3-fluoro-2-methyl-4-(1H-1,2,4-triazol-3-yl)phenyl)-4-(tetrahydro-2H-pyran-4-yl)-3,4-dihydropyrazino[2,3-b]pyrazin-2(1H)-one], 0.005 to 250 nM.
`CC(C)(O)c1ccc(-c2cnc3c(n2)N(Cc2ccc(C(F)(F)F)cc2)C(=O)CN3)cn1` [Example 257, 7-(6-(2-hydroxypropan-2-yl)pyridin-3-yl)-1-(4-(trifluoromethyl)benzyl)-3,4-dihydropyrazino[2,3-b]pyrazin-2(1H)-one]: the IC50 fell in the range of 0.005 to 250 nM.
With `Cc1cc(-c2cnc3c(n2)N(CCC2CCOCC2)C(=O)CN3)cc2[nH]c(N)nc12` [Example 269, 7-(2-amino-4-methyl-1H-benzo[d]imidazol-6-yl)-1-(2-(tetrahydro-2H-pyran-4-yl)ethyl)-3,4-dihydropyrazino[2,3-b]pyrazin-2(1H)-one] the figure was 0.005 to 250 nM; with `Nc1ccc(-c2cnc3c(n2)N(CCC2CCOCC2)C(=O)CN3)cn1` [Example 196, 7-(6-aminopyridin-3-yl)-1-(2-(tetrahydro-2H-pyran-4-yl)ethyl)-3,4-dihydropyrazino[2,3-b]pyrazin-2(1H)-one], 0.005 to 250 nM; with `O=C1CNc2ncc(-c3cnc4[nH]ccc4c3)nc2N1CCC1CCOCC1` [Example 224, 7-(1H-pyrrolo[2,3-b]pyridin-5-yl)-1-(2-(tetrahydro-2H-pyran-4-yl)ethyl)-3,4-dihydropyrazino[2,3-b]pyrazin-2(1H)-one], 0.005 to 250 nM.
The result for `CO[C@H]1CC[C@@H](CN2CC(=O)Nc3ncc(-c4ccc(C(C)(C)O)nc4)nc32)C1` [Example 57, 6-(6-(2-hydroxypropan-2-yl)pyridin-3-yl)-4-(((1R,3S)-3-methoxycyclopentyl)methyl)-3,4-dihydropyrazino[2,3-b]pyrazin-2(1H)-one] reads 0.005 to 250 nM; that for `CNc1nc2c(C)cc(-c3cnc4c(n3)N(CC3CCOCC3)C(=O)CN4)cc2[nH]1` [Example 263, 7-(4-methyl-2-(methylamino)-1H-benzo[d]imidazol-6-yl)-1-((tetrahydro-2H-pyran-4-yl)methyl)-3,4-dihydropyrazino[2,3-b]pyrazin-2(1H)-one], 0.005 to 250 nM.
Consider `CNc1nc2c(C)cc(-c3cnc4c(n3)N(CCOC)C(=O)CN4)cc2[nH]1` [Example 237, 1-(2-methoxyethyl)-7-(4-methyl-2-(methylamino)-1H-benzo[d]imidazol-6-yl)-3,4-dihydropyrazino[2,3-b]pyrazin-2(1H)-one], for which the IC50 is 0.005 to 250 nM.
As to `CC(C)(O)c1ccc(-c2cnc3c(n2)N([C@H]2CC[C@H](O)CC2)CC(=O)N3)cn1` [Example 101, 4-(trans-4-hydroxycyclohexyl)-6-(6-(2-hydroxypropan-2-yl)pyridin-3-yl)-3,4-dihydropyrazino[2,3-b]pyrazin-2(1H)-one], the concentration for half-maximal inhibition (IC50) was in the range of 0.005 to 250 nM.
`O=C1CNc2ncc(-c3ccc(-c4nc[nH]n4)nc3)nc2N1C[C@H]1CC[C@H](O)CC1` [Example 159, 7-(6-(1H-1,2,4-triazol-3-yl)pyridin-3-yl)-1-((trans-4-hydroxycyclohexyl)methyl)-3,4-dihydropyrazino[2,3-b]pyrazin-2(1H)-one]: the IC50 was 0.005 to 250 nM.
In the case of `Cc1cc(-c2nc[nH]n2)c(F)cc1-c1cnc2c(n1)N([C@H]1CC[C@H](O)CC1)CC(=O)N2` [Example 23, 6-(5-fluoro-2-methyl-4-(1H-1,2,4-triazol-3-yl)phenyl)-4-(trans-4-hydroxycyclohexyl)-3,4-dihydropyrazino[2,3-b]pyrazin-2(1H)-one], the IC50 fell in the range of 0.005 to 250 nM.
Consider `O=C1CNc2ncc(-c3c[nH]c4ncccc34)nc2N1CCC1CCOCC1` [Example 152, 7-(1H-pyrrolo[2,3-b]pyridin-3-yl)-1-(2-(tetrahydro-2H-pyran-4-yl)ethyl)-3,4-dihydropyrazino[2,3-b]pyrazin-2(1H)-one], for which the IC50 was 0.005 to 250 nM.
In the case of `O=C1CNc2ncc(-c3ccc(-c4nnc[nH]4)c(F)c3)nc2N1CCC1CCOCC1` [Example 243, 7-(3-fluoro-4-(4H-1,2,4-triazol-3-yl)phenyl)-1-(2-(tetrahydro-2H-pyran-4-yl)ethyl)-3,4-dihydropyrazino[2,3-b]pyrazin-2(1H)-one], the IC50 lay in the range of 0.005 to 250 nM.
With `CC(C)(O)c1ccc(-c2cnc3c(n2)N([C@H]2CC[C@@H](O)CC2)CC(=O)N3)cn1` [Example 102, 4-(cis-4-hydroxycyclohexyl)-6-(6-(2-hydroxypropan-2-yl)pyridin-3-yl)-3,4-dihydropyrazino[2,3-b]pyrazin-2(1H)-one] the figure was 250 to 500 nM; with `O=C1CNc2ncc(-c3ccnc4[nH]ccc34)nc2N1CCC1CCOCC1` [Example 157, 7-(1H-pyrrolo[2,3-b]pyridin-4-yl)-1-(2-(tetrahydro-2H-pyran-4-yl)ethyl)-3,4-dihydropyrazino[2,3-b]pyrazin-2(1H)-one], 0.005 to 250 nM; with `CC(C)(O)c1ccc(-c2cnc3c(n2)N(CC2CCOCC2)CC(=O)N3)cc1` [Example 90, 6-(4-(2-hydroxypropan-2-yl)phenyl)-4-((tetrahydro-2H-pyran-4-yl)methyl)-3,4-dihydropyrazino[2,3-b]pyrazin-2(1H)-one], 0.005 to 250 nM.
Turning to `CO[C@H]1CC[C@@H](N2C(=O)CNc3ncc(-c4ccc(C(C)(C)O)nc4)nc32)C1` [Example 211, 7-(6-(2-hydroxypropan-2-yl)pyridin-3-yl)-1-((1R,3S)-3-methoxycyclopentyl)-3,4-dihydropyrazino[2,3-b]pyrazin-2(1H)-one], the IC50 lay within 0.005 to 250 nM.
With `C[C@H](O)c1ccc(-c2cnc3c(n2)N(CCC2CCOCC2)CC(=O)N3)cn1` [Example 83, (S)-6-(6-(1-hydroxyethyl)pyridin-3-yl)-4-(2-(tetrahydro-2H-pyran-4-yl)ethyl)-3,4-dihydropyrazino[2,3-b]pyrazin-2(1H)-one], the IC50 lay in the range of 250 to 500 nM.
Turning to `O=C1CN(C2CCOCC2)c2nc(-c3ccc(-c4nc[nH]n4)nc3)cnc2N1` [Example 21, 6-(6-(1H-1,2,4-triazol-3-yl)pyridin-3-yl)-4-(tetrahydro-2H-pyran-4-yl)-3,4-dihydropyrazino[2,3-b]pyrazin-2(1H)-one], the IC50 is 0.005 to 250 nM.
With `CC(C)(O)c1ccc(-c2cnc3c(n2)N2CCOCC2C(=O)N3)cn1` (stereo not drawn) [Example 133, 9-[6-(1-hydroxy-isopropyl)-3-pyridyl]-6,11,4a-trihydromorpholino[4,3-e]pyrazino[2,3-b]pyrazin-5-one], the IC50 lay in the range of 500 to 1000 nM.
As for `COCCN1C(=O)CNc2ncc(-c3cnc4[nH]ccc4c3)nc21` [Example 192, 1-(2-methoxyethyl)-7-(1H-pyrrolo[2,3-b]pyridin-5-yl)-3,4-dihydropyrazino[2,3-b]pyrazin-2(1H)-one], the IC50 was 0.005 to 250 nM.
The result for `CO[C@H]1CC[C@H](N2CC(=O)Nc3ncc(-c4ccc(-c5nc[nH]n5)nc4)nc32)CC1` [Example 12] reads 0.005 to 250 nM; that for `O=C1CNc2ncc(-c3ccncc3)nc2N1CCC1CCOCC1` [Example 195, 7-(pyridin-4-yl)-1-(2-(tetrahydro-2H-pyran-4-yl)ethyl)-3,4-dihydropyrazino[2,3-b]pyrazin-2(1H)-one], 1000 to 10000 nM.

One may read the IC50 as the concentration needed to halve the response being measured.
